Source: patent US9212168B2 (priority 2011, dated 2015)

Tests used:
HCV genotype 1b replicon = HCV genotype 1b replicon assay (Renilla luciferase readout); type: cell-based, hepatitis C virus; settings: for Genotype 1b: HCV genotype 1b replicon; for EC50: Hepatitis C virus, read-out: Genotype 1b
Summary of the method: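 Reported as pEC50 derived from a 4-parameter fit of Renilla luciferase activity against concentration. Replicon cells (APC144, Huh7 background) were exposed to compound for 48 h in G418-free medium with final 0.5% DMSO, after seeding at 10,000 cells/well and 4 h adherence.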

HCV genotype 1a replicon = HCV genotype 1a replicon assay (NS3 protease activity readout); type: cell-based, hepatitis C virus; settings: for Genotype 1a: HCV genotype 1a replicon; for EC50: Hepatitis C virus, read-out: Genotype 1a, HCV genotype 1a replicon
Summary of the method: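 EC50 values came from a 4-parameter robust fit of fluorescence (ex 340, em 509 nm) produced by NS3-specific protease in lysates, assayed with 15 μM FRET substrate for 20 min at 37° C, after 48 or 72 hours of compound exposure (0.5% DMSO) of Huh7.5-derived APC89 genotype 1a replicon cells.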

Row | SMILES | Genotype 1b (HCV genotype 1b replicon) | Genotype 1a (HCV genotype 1a replicon) | EC50 (HCV genotype 1b replicon) | EC50 (HCV genotype 1a replicon)
1 | COC[C@H]1CN(c2ccc(C(=O)Nc3cc(OC(F)(F)F)c(-c4ccc(-c5c[nH]c([C@@H]6C[C@H](C)CN6C(=O)[C@@H](NC(=O)OC)C6CCOCC6)n5)cc4)cc3Cl)cn2)CCN1C(=O)C(C)(C)C [Example 20-7] | D (D represents pEC50>10 (EC50<0.1 nM)) | D (D represents pEC50>10 (EC50<0.1 nM)) | – | –
2 | COC(=O)NC(C(=O)N1C[C@@H](C)C[C@H]1c1nc(-c2ccc(-c3c(F)cc(NC(=O)c4ccc(N5CCN(C(=O)C(C)(C)C)C[C@H]5C)nc4)cc3F)cc2)c[nH]1)C1CCOCC1 (some centres unmarked) [Example 21-3] | – | – | < 0.1 nM | < 0.1 nM
3 | COC(=O)N[C@H](C(=O)N1C[C@@H](C)C[C@H]1c1nc(-c2ccc(-c3ccc(C(=O)Nc4ccc(N5CCN(C(=O)C(C)(C)C)C[C@H]5C)nc4)cc3)cc2)c[nH]1)C1CCOCC1 [Example 22-1] | D (D represents pEC50>10 (EC50<0.1 nM)) | D (D represents pEC50>10 (EC50<0.1 nM)) | – | –
4 | COC(=O)N[C@H](C(=O)N1C[C@@H](C)C[C@H]1c1nc(-c2ccc(-c3ccc(C(=O)Nc4ccc(N5CCN(C(=O)C(C)(C)C)C[C@H]5C)nc4)cc3OC(F)(F)F)cc2)c[nH]1)C1CCOCC1 [Example 22-3] | D (D represents pEC50>10 (EC50<0.1 nM)) | D (D represents pEC50>10 (EC50<0.1 nM)) | – | –
5 | COC(=O)N[C@H](C(=O)N1C[C@@H](C)C[C@H]1c1nc(-c2ccc(-c3ccc(C(=O)Nc4ccc(N5CCN(C(=O)[C@H]6CC6(C)C)C[C@H]5C)nc4)cc3OC(F)(F)F)cc2)c[nH]1)C1CCOCC1 [Example 22-4] | D (D represents pEC50>10 (EC50<0.1 nM)) | D (D represents pEC50>10 (EC50<0.1 nM)) | – | –
6 | COC(=O)N[C@H](C(=O)N1C[C@@H](C)C[C@H]1c1nc(-c2ccc(-c3cc(Cl)c(C(=O)Nc4ccc(N5CCN(C(=O)[C@H]6CC6(C)C)C[C@H]5C)nc4)cc3OC(F)(F)F)cc2)c[nH]1)C1CCOCC1 [Example 22-5] | D (D represents pEC50>10 (EC50<0.1 nM)) | D (D represents pEC50>10 (EC50<0.1 nM)) | – | –
7 | COC(=O)N[C@H](C(=O)N1C[C@@H](C)C[C@H]1c1nc(-c2ccc(-c3ccc(C(=O)Nc4ccc(N5CCN(C(=O)C(C)(C)C)C[C@H]5C)nc4)cc3OC(F)(F)F)cc2)c(Cl)[nH]1)C1CCOCC1 [Example 22-6] | D (D represents pEC50>10 (EC50<0.1 nM)) | D (D represents pEC50>10 (EC50<0.1 nM)) | – | –
8 | COC(=O)N[C@H](C(=O)N1C[C@@H](C)C[C@H]1c1nc(-c2ccc(-c3cc(Cl)c(C(=O)Nc4ccc(N5CCN(C(=O)C(C)(C)C)C[C@H]5C)nc4)cc3OC(F)(F)F)cc2)c(Cl)[nH]1)C1CCOCC1 [Example 22-7] | – | – | < 0.1 nM | < 0.1 nM
9 | COC(=O)N[C@H](C(=O)N1C[C@@H](C)C[C@H]1c1nc(-c2ccc(-c3ccc(C(=O)Nc4ccc(N5CCN(C(=O)C(C)(C)CO)C[C@H]5C)nc4)cc3OC(F)(F)F)cc2)c(Cl)[nH]1)C1CCOCC1 [Example 22-8] | D (D represents pEC50>10 (EC50<0.1 nM)) | D (D represents pEC50>10 (EC50<0.1 nM)) | – | –
10 | COC(=O)N[C@H](C(=O)N1C[C@@H](C)C[C@H]1c1nc(-c2ccc(-c3cc(Cl)c(C(=O)Nc4ccc(N5CCN(C(=O)C(C)(C)CO)C[C@H]5C)nc4)cc3OC(F)(F)F)cc2)c(Cl)[nH]1)C1CCOCC1 [Example 22-9] | – | – | < 0.1 nM | < 0.1 nM
11 | COC(=O)N[C@H](C(=O)N1C[C@@H](C)C[C@H]1c1nc(-c2ccc(-c3ccc(C(=O)Nc4ccc(N5CCN(C(=O)C(C)(C)C)C[C@H]5C)nc4)cc3)cc2)c(Cl)[nH]1)C1CCOCC1 [Example 22-10] | D (D represents pEC50>10 (EC50<0.1 nM)) | D (D represents pEC50>10 (EC50<0.1 nM)) | – | –
12 | COC(=O)N[C@H](C(=O)N1C[C@@H](C)C[C@H]1c1nc(-c2ccc(-c3ccc(C(=O)Nc4ccc(N5CCN(C(=O)[C@H]6CC6(C)C)C[C@H]5C)nc4)cc3)cc2)c(Cl)[nH]1)C1CCOCC1 [Example 22-11] | D (D represents pEC50>10 (EC50<0.1 nM)) | D (D represents pEC50>10 (EC50<0.1 nM)) | – | –
13 | COC(=O)N[C@H](C(=O)N1C[C@@H](OC)C[C@H]1c1nc(-c2ccc(-c3ccc(C(=O)Nc4ccc(N5CCN(C(=O)C(C)(C)C)C[C@H]5C)nc4)cc3OC(F)(F)F)cc2)c[nH]1)C1CCOCC1 [Example 22-12] | D (D represents pEC50>10 (EC50<0.1 nM)) | D (D represents pEC50>10 (EC50<0.1 nM)) | – | –
14 | COC(=O)N[C@H](C(=O)N1C[C@@H](OC)C[C@H]1c1nc(-c2ccc(-c3ccc(C(=O)Nc4ccc(N5CCN(C(=O)C(C)(C)C)C[C@H]5C)nc4)cc3)cc2)c[nH]1)C1CCOCC1 [Example 22-13] | D (D represents pEC50>10 (EC50<0.1 nM)) | D (D represents pEC50>10 (EC50<0.1 nM)) | – | –
15 | COC(=O)N[C@H](C(=O)N1C[C@@H](OC)C[C@H]1c1nc(-c2ccc(-c3cc(Cl)c(C(=O)Nc4ccc(N5CCN(C(=O)C(C)(C)C)C[C@H]5C)nc4)cc3OC(F)(F)F)cc2)c[nH]1)C1CCOCC1 [Example 22-16] | D (D represents pEC50>10 (EC50<0.1 nM)) | D (D represents pEC50>10 (EC50<0.1 nM)) | – | –
16 | COC(=O)NC(C(=O)N1C[C@@H](C)C[C@H]1c1nc(-c2ccc(-c3ccc(C(=O)Nc4ccc(N5CCN(C(=O)C(C)(C)C)C[C@H]5C)nc4)c(F)c3OC(F)(F)F)cc2)c[nH]1)C1CCOCC1 (some centres unmarked) [Example 25-2] | – | – | < 0.1 nM | < 0.1 nM
17 | COC(=O)N[C@H](C(=O)N1C[C@@H](O)C[C@H]1c1nc(-c2ccc(-c3ccc(NC(=O)c4ccc(N5CCN(C(=O)[C@H]6CC6(C)C)C[C@H]5C)nc4)cc3)cc2)c[nH]1)C(C)C [Example 26-4] | D (D represents pEC50>10 (EC50<0.1 nM)) | C (C represents pEC50 between and 9 and about 10, (EC50 between 1 nM and 0.1 nM)) | – | –
18 | COC(=O)N[C@H](C(=O)N1C[C@@H](O)C[C@H]1c1nc(-c2ccc(-c3cc(F)c(NC(=O)c4ccc(N5CCN(C(=O)C(C)(C)CO)C[C@H]5C)nc4)cc3OC(F)(F)F)cc2)c[nH]1)C(C)C [Example 26-7] | D (D represents pEC50>10 (EC50<0.1 nM)) | C (C represents pEC50 between and 9 and about 10, (EC50 between 1 nM and 0.1 nM)) | – | –
19 | COC(=O)N[C@H](C(=O)N1C[C@@H](OC)C[C@H]1c1nc(-c2ccc(-c3cc(Cl)c(NC(=O)c4ccc(N5CCN(C(=O)[C@H]6CC6(C)C)C[C@H]5C)nc4)cc3OC(F)(F)F)cc2)c[nH]1)C(C)C [Example 27-1] | D (D represents pEC50>10 (EC50<0.1 nM)) | D (D represents pEC50>10 (EC50<0.1 nM)) | – | –
20 | COC(=O)N[C@H](C(=O)N1C[C@@H](OC)C[C@H]1c1nc(-c2ccc(-c3cc(F)c(NC(=O)c4ccc(N5CCN(C(=O)C(C)(C)C)C[C@H]5C)nc4)cc3OC(F)(F)F)cc2)c[nH]1)C(C)C [Example 27-3] | D (D represents pEC50>10 (EC50<0.1 nM)) | D (D represents pEC50>10 (EC50<0.1 nM)) | – | –
21 | COC(=O)N[C@H](C(=O)N1C[C@@H](OC)C[C@H]1c1nc(-c2ccc(-c3cc(Cl)c(NC(=O)c4ccc(N5CCN(C(=O)[C@]67C[C@H]6CCN7)C[C@H]5C)nc4)cc3OC(F)(F)F)cc2)c[nH]1)C(C)C [Example 27-5] | D (D represents pEC50>10 (EC50<0.1 nM)) | D (D represents pEC50>10 (EC50<0.1 nM)) | – | –
22 | COC(=O)N[C@H](C(=O)N1C[C@@H](OC)C[C@H]1c1nc(-c2ccc(-c3cc(F)c(NC(=O)c4ccc(N5CCN(C(=O)C(C)(C)CO)C[C@H]5C)nc4)cc3OC(F)(F)F)cc2)c[nH]1)C(C)C [Example 27-6] | D (D represents pEC50>10 (EC50<0.1 nM)) | D (D represents pEC50>10 (EC50<0.1 nM)) | – | –
